Key:
Format in all cases: in vivo
Sunflower [1] = experiment: Test C preemergence; conditions: Rate 125 g/ha; scale 0 to 100, 0 no effect, 100 complete control
[2] = test system: johnsongrass (Sorghum halepense); experiment: Test C preemergence
In short: (§1)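 Seeds are planted and treated before emergence; for the postemergence test, plants at 1- to 4-leaf stage (2–18 cm) receive the same formulation, a solvent blend containing surfactant. Plants stay in the greenhouse 12–14 days, then response is scored visually from 0 (none) to 100 (complete control).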

kochia (Kochia scoparia) = experiment: Test C preemergence
In short: as §1

corn (Zea mays) [3] = experiment: Test C preemergence
In short: as §1

[4] = test system: giant foxtail (Setaria faberii); experiment: Test C preemergence
In short: as §1

[5] = test system: yellow nutsedge (Cyperus esculentus); experiment: Test C preemergence
In short: as §1

[6] = test system: bermudagrass (Cynodon dactylon); experiment: Test C preemergence
In short: as §1

[7] = test system: morningglory (Ipomoea hederacea); experiment: Test C preemergence
In short: as §1

[8] = test system: velvetleaf (Abutilon theophrasti); experiment: Test C preemergence
In short: as §1

[9] = test system: morning glory (Ipomoea hederacea); experiment: Test B postemergence; conditions: Rate 125 g/ha, scale 0 to 100, 0 no effect, 100 complete control
In short: (§2)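 Greenhouse test: chemicals are formulated in a surfactant-containing non-phytotoxic solvent and applied either preemergence to planted seeds or postemergence to plants 2 to 18 cm tall. Response is rated visually versus controls after 13 to 15 days, 0 meaning no effect and 100 complete control.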

[10] = test system: barnyardgrass (Echinochloa crus-galli); experiment: Test B postemergence
In short: as §2

[11] = test system: pigweed (Amaranthus retroflexus); experiment: Test B postemergence; conditions: Rate 125 g/ha, scale 0 to 100, 0 no effect, 100 complete control
In short: as §2

[12] = test system: Surinam grass (Brachiaria decumbens); experiment: Test B postemergence
In short: as §2

[13] = test system: cocklebur (Xanthium strumarium); experiment: Test B postemergence
In short: as §2

corn (Zea mays) [14] = experiment: Test B postemergence
In short: as §2

[15] = test system: giant foxtail (Setaria faberii); experiment: Test B postemergence; conditions: Rate 125 g/ha, scale 0 to 100, 0 no effect, 100 complete control
In short: as §2

wild oat (Avena fatua) = experiment: Test B postemergence; conditions: Rate 125 g/ha, scale 0 to 100, 0 no effect, 100 complete control
In short: as §2

[16] = test system: velvetleaf (Abutilon theophrasti); experiment: Test B postemergence; conditions: Rate 125 g/ha, scale 0 to 100, 0 no effect, 100 complete control
In short: as §2

[17] = test system: lambsquarters (Chenopodium album); experiment: Test B postemergence; conditions: Rate 125 g/ha, scale 0 to 100, 0 no effect, 100 complete control
In short: as §2

[18] = test system: crabgrass (Digitaria sanguinalis); experiment: Test B postemergence; conditions: Rate 125 g/ha, scale 0 to 100, 0 no effect, 100 complete control
In short: as §2

[19] = test system: wheat (Triticum aestivum); experiment: Test B postemergence; conditions: Rate 125 g/ha, scale 0 to 100, 0 no effect, 100 complete control
In short: as §2

[20] = test system: blackgrass (Alopecurus myosuroides); experiment: Test B postemergence
In short: as §2

Sunflower [21] = experiment: Test C preemergence; conditions: Rate 500 g/ha, visual evaluation after 12 to 14 days
[22] = Rate 125 g/ha, scale 0 to 100, 0 no effect, 100 complete control
[23] = preemergence, Rate 62 g/ha, scale 0 to 100
[24] = preemergence, Rate 500 g/ha, visual evaluation after 12 to 14 days
[25] = preemergence, Rate 250 g/ha, scale 0 to 100, 0 no effect, 100 complete control
[26] = Rate 500 g/ha, scale 0 to 100, 0 is no effect, 100 is complete control, 13 to 15 days

CCC(C)Oc1cccc(N2CCC(n3ccc(C(C)(C)C)n3)C2=O)c1 (stereo not shown) [Compound 127]
Plant response rating, Sunflower (Sunflower [1]): 0 | Plant response rating, Johnsongrass [2, 22]: 0 | Plant response rating, Johnsongrass [2, 23]: 0 | Plant response rating (0 to 100), Johnsongrass [2, 24]: 0 | Plant response rating, Johnsongrass [2, 25]: 0 | Plant response rating, Kochia (kochia (Kochia scoparia); [22]): 0 | Plant response rating, Kochia (kochia (Kochia scoparia); [23]): 0 | Plant response rating (0 to 100), Kochia (kochia (Kochia scoparia); [24]): 0 | Plant response rating, Kochia (kochia (Kochia scoparia); [25]): 0 | Plant response rating, Corn (corn (Zea mays) [3]; [22]): 0 | Plant response rating, Corn (corn (Zea mays) [3]; [23]): 0 | Plant response rating (0 to 100), Corn (corn (Zea mays) [3]; [24]): 30 | Plant response rating, Corn (corn (Zea mays) [3]; [25]): 30 | Plant response rating, Foxtail, Giant [4, 22]: 0 | Plant response rating, Foxtail, Giant [4, 23]: 0 | Plant response rating (0 to 100), Foxtail, Giant [4, 24]: 100 | Plant response rating, Foxtail, Giant [4, 25]: 100 | Plant response rating, Nutsedge [5, 22]: 0 | Plant response rating, Nutsedge [5, 23]: 0 | Plant response rating (0 to 100), Nutsedge [5, 24]: 0 | Plant response rating, Nutsedge [5, 25]: 0 | Plant response rating, Bermudagrass [6, 22]: 100 | Plant response rating, Bermudagrass [6, 23]: 90 | Plant response rating (0 to 100 where 0 is no effect and 100 is complete control), Bermudagrass [6, 24]: 100 | Plant response rating, Bermudagrass [6, 25]: 100 | Plant response rating, Morningglory [7, 22]: 0 | Plant response rating, Morningglory [7, 23]: 0 | Plant response rating (0 to 100), Morningglory [7, 24]: 20 | Plant response rating, Morningglory [7, 25]: 0 | Plant response rating, Velvetleaf [8, 22]: 0 | Plant response rating, Velvetleaf [8, 23]: 0 | Plant response rating (0 to 100), Velvetleaf [8, 24]: 30 | Plant response rating, Velvetleaf [8, 25]: 10 | Plant response rating, Morningglory [9]: 0 | Plant response rating, Barnyardgrass [10, 22]: 0 | Plant response rating, Barnyardgrass [10, 26]: 0 | Plant response rating, Pigweed [11]: 0 | Plant response rating, Surinam grass [12, 22]: 0 | Plant response rating, Surinam grass [12, 26]: 0 | Plant response rating, Cocklebur [13, 22]: 0 | Plant response rating, Cocklebur [13, 26]: 60 | Plant response rating, Corn (corn (Zea mays) [14]; [22]): 0 | Plant response rating, Corn (corn (Zea mays) [14]; [26]): 0 | Plant response rating, Foxtail, Giant [15]: 0 | Plant response rating, Wild Oat (wild oat (Avena fatua)): 0 | Plant response rating, Velvetleaf [16]: 0 | Plant response rating, Lambsquarters [17]: 30 | Plant response rating, Crabgrass [18]: 0 | Plant response rating, Wheat [19]: 0 | Plant response rating, Blackgrass [20, 22]: 0 | Plant response rating, Blackgrass [20, 26]: 0 | Plant response rating (0 to 100), Sunflower (Sunflower [21]): 0
